Patent US8178530B2, “Imidazolopyrazine compounds useful for the treatment of degenerative and inflammatory diseases” (Janssen Pharmaceutica NV, priority 2006, dated 2012)
pEC50, pIC50: −log10 of the molar value.

Experiments:
MMP1 expression by SFs = assay: 'MMP assay': MMP1 expression by 'complex trigger' activated synovial fibroblasts (MMP1 ELISA); type: cell-based, human; settings: Homo sapiens, Fibroblast, RASFs, 48 hrs
Method: A 384-well format ELISA for measurement of MMP1 is developed. Various primary antibodies are tested, as well as various ELISA protocols. The following protocol is developed and validated to measure MMP1 levels in SF supernatant in 384 well plates: white Lumitrac 600 384 well plates (Greiner) are coated with 2 μg/mL anti-MMP1 antibody MAB1346 (Chemicon). The antibody is diluted in buffer 40 (1.21 g Tris base (Sigma), 0.58 g NaCl (Calbiochem) and 5 ml 10% NaN3 (Sigma) in 1 L milliQ water and adjusted to pH 8.5). After overnight incubation at 4° C., plates are washed with PBS (80 g NaCl, 2 g KCl (Sigma), 11.5 g Na2HPO4.7H2O and 2 g KH2PO4 in 10 L milliQ; pH 7.4) and blocked with 100 μL/well Casein buffer (2% Casein (VWR International) in PBS). Next day, casein buffer is removed from ELISA plates and replaced by 50 μL/well EC buffer (4 g casein, 2.13 g Na2HPO4 (Sigma), 2 g bovine albumin (Sigma), 0.69 g NaH2PO4.H2O (Sigma), 0.5 g CHAPS (Roche), 23.3 g NaCl, 4 mL 0.5 M EDTA pH 8 (Invitrogen), 5 mL 10% NaN3 in 1 L milliQ and adjusted to pH 7.0). 0.25 mM DTT (Sigma) is added to the thawed samples plates. After removal of the EC buffer, 20 μL of sample is transferred to the ELISA plates. After overnight incubation at 4° C. plates are washed twice with PBS and once with PBST (PBS with 0.05% Tween-20 (Sigma)) and incubated with 35 μL/well biotinylated anti-MMP1 antibody solution (R&D). This secondary antibody is diluted in buffer C (0.82 g NaH2PO4.H2O, 4.82 g Na2HPO4, 46.6 g NaCl, 20 g bovine albumin and 4 mL 0.5M EDTA pH 8 in 2 L milliQ and adjusted to pH 7.0) at a concentration of 5 μg/mL. After 2 h of incubation at RT, plates are washed as described above and incubated with 50 μL/well streptavidin-HRP conjugate (Biosource). Streptavidin-HRP conjugate is diluted in buffer C at a concentration of 0.25 μg/mL. After 45 min, plates are washed as described above and incubated for 5 min with 50 μL/well BM Chem ELISA Substrate (Roche). Readout is performed on the Luminoscan Ascent Luminometer (Labsystems) with an integration time of 200 msec or with an Envision reader (Perkin Elmer).
The increase of MMP1 expression by SFs upon treatment with cytokines relevant in the field of RA (TNF-α, IL1β and OSM) or a combination thereof is shown in FIG. 2 as white bars. For this experiment, SFs are seeded in 96 well plates, 3,000 cells/well. 24 h later, the medium is changed to M199 medium supplemented with 1% FBS. One day after the medium change, cytokines or combinations thereof are added to the cultures, each cytokine being added to a final concentration of 25 ng/mL. 72 h after cytokine addition, the supernatant is collected and processed in the MMP1 ELISA as described in the protocol given above. In parallel with this experiment, SFs are triggered, using the same protocol, with the supernatant of THP1 cells (2-fold diluted in M199+1% FBS) treated with the same cytokines or combinations of cytokines for 48 h in M199 medium+1% FBS. The induction of the MMP1 expression by SFs triggered with the supernatants of TNF-α-treated THP1 cells is stronger (>4.5 fold induction) as compared to the SFs triggered with recombinant TNF-α alone (3-fold induction) and almost equals the 5-fold induction obtained by a mixture of 3 purified cytokines (TNF-α, IL1βb, OSM). […] As the role of TNF-α in the RA pathogenesis is validated (TNF-α-blockers such as Infliximab and Etanercept show some efficacy in the treatment of RA patients) and the THP-1 cells are representative for monocytes/macrophages present in the joint of RA patients, the TNF-α-based trigger mixture prepared by contacting THP-1 cells with TNF-α will contain factors present in the joints of RA patients and subsequently is relevant to RA. This TNF-α-based complex trigger, further referred to as the ‘complex trigger’, will further be used as basis for the ‘MMP assay’.
Dexamethasone is shown to dose-dependently reduce amounts of MMP1 produced by complex trigger activated SFs. […]

MAPKAPK5 = target: T1, MAPKAPK5 (Homo sapiens, UniProt Q8IW41); assay: MAPKAP-K5 assay (FlashPlate, 33P-ATP); type: biochemical; settings: 0.6 μM ATP, 30 minutes at room temperature
T1 construct: 1 mU MAPKAP-K5
T1 sequence (Q8IW41 1-473): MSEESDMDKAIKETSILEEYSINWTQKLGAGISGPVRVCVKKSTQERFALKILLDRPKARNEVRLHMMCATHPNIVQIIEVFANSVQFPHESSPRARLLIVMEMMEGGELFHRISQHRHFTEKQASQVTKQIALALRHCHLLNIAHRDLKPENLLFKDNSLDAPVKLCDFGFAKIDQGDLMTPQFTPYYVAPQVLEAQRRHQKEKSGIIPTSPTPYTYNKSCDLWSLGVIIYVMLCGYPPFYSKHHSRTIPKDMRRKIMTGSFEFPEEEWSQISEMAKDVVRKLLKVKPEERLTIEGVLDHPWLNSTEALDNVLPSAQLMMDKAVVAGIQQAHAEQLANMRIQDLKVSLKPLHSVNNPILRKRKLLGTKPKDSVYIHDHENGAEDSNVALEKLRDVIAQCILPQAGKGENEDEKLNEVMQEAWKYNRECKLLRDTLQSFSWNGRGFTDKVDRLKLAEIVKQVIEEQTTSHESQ
Method: 3 μM MAPKAP-K5 peptide substrate

SMILES | pEC50 (MMP1 expression by SFs) | pIC50 (MAPKAPK5)
Cc1cc(Nc2ncc(-c3cn[nH]c3)n3ccnc23)ccc1C(N)=O [Compound 33] | < 6.00 | < 6.00
c1cn2c(-c3nc[nH]n3)cnc(Nc3ccc(N4CCOCC4)cc3)c2n1 [Compound 91] | < 6.00 | < 6.00
CC(C)N1CCN(c2ccc(Nc3ncc(-c4cc(F)c5c(c4)CNC5=O)n4ccnc34)cc2)CC1 [Compound 220, 7-Fluoro-5-{8-[4-(4-isopropyl-piperazin-1-yl)phenylamino]imidazo[1,2-a]pyrazin-5-yl}-2,3-dihydroisoindol-1-one] | < 6.00 | 7.00 to 9.00
NC(=O)c1ccc(-c2cnc(Nc3cccnc3)c3nccn23)cc1 [Compound 96] | < 6.00 | < 6.00
O=C1NCc2cc(-c3cnc(Nc4ccccc4)c4nccn34)ccc21 [Compound 213] | 6.30 to 7.00 | 6.30 to 7.00
CCc1cnc2c(Nc3ccc(N4CCOCC4)cc3)ncc(-c3ccc(C(N)=O)cc3)n12 [Compound 162, 4-[3-Ethyl-8-(4-morpholin-4-ylphenylamino)-imidazo[1,2-a]pyrazin-5-yl]benzamide] | 6.00 to 6.30 | < 6.00
O=C(NCc1cccnc1)c1ccc(Nc2ncc(-c3cc[nH]c(=O)c3)n3ccnc23)cc1 [Compound 108, 4-[5-(2-Oxo-1,2-dihydropyridin-4-yl)imidazo[1,2-a]pyrazin-8-ylamino]-N-pyridin-3-ylmethyl benzamide] | 6.30 to 7.00 | 6.00 to 6.30
O=C(O)c1cnc(Nc2ccc(N3CCOCC3)cc2)c2nccn12 [Compound 63] | < 6.00 | < 6.00
NC(=O)c1ccc(Nc2ncc(-c3cn[nH]c3)n3ccnc23)nc1 [Compound 38] | < 6.00 | < 6.00
CCN(CC)CCNC(=O)c1ccc(Nc2ncc(-c3ccc(C(=O)O)cc3)n3ccnc23)cc1 [Compound 47] | < 6.00 | < 6.00
O=C1NCc2cc(-c3cnc(Nc4cnc(N5CCOCC5)nc4)c4nccn34)ccc21 [Compound 215] | < 6.00 | 6.30 to 7.00
Fc1ccc(Nc2ncc(-c3cn[nH]c3)n3ccnc23)cc1Cl [Compound 17] | < 6.00 | < 6.00
NCc1cccc(CNC(=O)c2ccc(Nc3ncc(-c4cn[nH]c4)n4ccnc34)cc2)c1 [Compound 95] | 6.30 to 7.00 | < 6.00
CC(C)N1CCC(c2ccc(Nc3ncc(-c4csc(C(N)=O)c4)n4ccnc34)cc2)CC1 [Compound 199, 4-{8-[4-(1-Isopropylpiperidin-4-yl)phenyl-amino]imidazo[1,2-a]pyrazin-5-yl}thiophene-2-carboxylic acid amide] | 6.30 to 7.00 | 6.30 to 7.00
CN1CCN(c2ccc(Nc3ncc(-c4cn[nH]c4C(F)(F)F)n4ccnc34)cc2)CC1 [Compound 157, [4-(4-Methyl-piperazin-1-yl)-phenyl]-[5-(3-trifluoromethyl-1H-pyrazol-4-yl)-imidazo[1,2-a]pyrazin-8-yl]-amine] | < 6.00 | < 6.00
CCN(CC)c1ccc(Nc2ncc(-c3cn[nH]c3)n3ccnc23)cc1 [Compound 9] | < 6.00 | 6.00 to 6.30
NC(=O)c1ccc(-c2cnc(Nc3ccc(-n4cc(-c5ccccn5)nn4)cc3)c3nccn23)cc1 [Compound 154, 4-{8-[4-(4-Pyridin-2-yl-[1,2,3]triazol-1-yl)-phenylamino]-imidazo[1,2-a]pyrazin-5-yl}-benzamide] | 7.00 to 9.00 | < 6.00
NC(=O)c1ccc(-c2cnc(Nc3ccc(-n4ccc(C(F)(F)F)n4)cc3)c3nccn23)cc1 [Compound 133] | 6.30 to 7.00 | < 6.00
NC(=O)c1c(F)cc(-c2cnc(Nc3ccc(OCCN4CCOCC4)cc3)c3nccn23)cc1F [Compound 216] | < 6.00 | 6.00 to 6.30
NC(=O)Cn1cc(-c2cnc(Nc3ccc(N4CCOCC4)cc3)c3nccn23)cn1 [Compound 24] | < 6.00 | < 6.00
CCN(CC)CCNC(=O)c1ccc(Nc2ncc(-c3ccc(-c4nn[nH]n4)cc3)n3ccnc23)cc1 [Compound 60] | < 6.00 | < 6.00
O=C1NCc2cc(-c3cnc(Nc4ccc(N5CCOCC5)cn4)c4nccn34)ccc21 [Compound 211] | < 6.00 | 6.30 to 7.00
CCN(CCO)c1ccc(Nc2ncc(-c3ccc(C(N)=O)cc3)n3ccnc23)cc1 [Compound 4] | 6.30 to 7.00 | < 6.00
CCN(CC)CCNC(=O)c1ccc(Nc2ncc(-c3cccs3)n3ccnc23)cc1 [Compound 78] | < 6.00 | < 6.00
Cc1cnc2c(Nc3ccc(N4CCOCC4)cc3)ncc(-c3cn[nH]c3)n12 [Compound 131, [3-Methyl-5-(1H-pyrazol-4-yl)imidazo[1,2-a]pyrazin-8-yl]-(4-morpholin-4-yl-phenyl)amine] | < 6.00 | < 6.00
Nc1ccc(Nc2ncc(-c3cn[nH]c3)n3ccnc23)cc1 [Compound 15] | < 6.00 | < 6.00
CCN(CC)CCNC(=O)c1ccc(Nc2ncc(-c3cn[nH]c3)n3cc(C)nc23)cc1 [Compound 59] | < 6.00 | < 6.00
COc1cccc(Nc2ncc(-c3ccc(C(N)=O)cc3)n3ccnc23)c1 [Compound 19] | 6.00 to 6.30 | < 6.00
CC(C)N1CCN(c2ccc(Nc3ncc(-c4ccc5c(c4)C(C)(C)NC5=O)n4ccnc34)cc2)CC1 [Compound 227] | < 6.00 | < 6.00
CCN(CC)CCNC(=O)c1ccc(Nc2ncc(-c3cncnc3)n3ccnc23)cc1 [Compound 87] | < 6.00 | < 6.00
